Assay results published in patent US20040039049A1, “Stable amorphous calcium pseudomonate and processes for the preparation thereof” (CHEMAGIS LTD, priority 2002, published 2004).
Blank lines part the entries; values can stand above or below the molecule they belong to.

Legend:
[1] = on storage, prior patents; cited from earlier work
[2] = Repeat of prior-art process (evaporation of solvents); assay type: physicochemical; settings: prior-art process repeated, regardless of conditions used to distill out the water
Procedure: Process for the preparation of amorphous calcium pseudomonate is described in U.S. Pat. No. 4,916,155, U.S. Pat. No. 5,191,093 and U.S. Pat. No. 5,436,266. A solution of pseudomonic acid is dissolved in a mixture of methanol and water and neutralized to pH 7.1 with calcium oxide. The solution is filtered and the solvents are evaporated under reduced pressure to give solid foam. Trituration of the foam with diethyl ether affords amorphous calcium pseudomonate.
This decomposition occurred regardless of the conditions used to distill out the water.

[3] = Decomposition of pseudomonic acid during the process of preparing the calcium salt; assay type: physicochemical; settings: for Related Substances (from process) P.A. D / Decomposition Products D.P. I / Decomposition Products D.P. II / Related Substances (from process) P.A. B / Related Substances (from process) P.A. C / Related Substances (from process) P.A. E: before / after preparation of the calcium salt; for Decomposition Products D.P. I / Decomposition Products D.P. II / Related Substances (from process) P.A. B / Related Substances (from process) P.A. C / Related Substances (from process) P.A. E: unit assumed
Procedure: The calcium pseudomonate solution was prepared by a slow addition of solid calcium hydroxide to a suspension of pseudomonic acid in water. The calcium salt formed is gradually dissolved. The almost clear solution is filtered and frozen.
Pseudomonic acid (100 gr.) is suspended in water (1000 ml). The mixture is cooled below 15° C. and calcium hydroxide (ca. 7.0 gr.) is added gradually until the pH is 8. The slightly turbid mixture is filtered and the solution is frozen and lyophilized. The product obtained is crushed and milled to give amorphous calcium pseudomonate in quantitative yield.

[4] = Stability on storage (related substances and decomposition products); assay type: physicochemical; settings: for Decomposition Products D.P. I / Related Substances (from process) P.A. B / Related Substances (from process) P.A. C / Related Substances (from process) P.A. D / Related Substances (from process) P.A. E: unit assumed

Decomposition during the evaporation of the solvents (in words) [2]: appreciable decomposition
Related Substances (from process) P.A. D [3]: 1.25
Decomposition Products D.P. I [3]: 0.62%
Decomposition Products D.P. II [3]: 1.1%
Related Substances (from process) P.A. B [3]: 0.4%
Related Substances (from process) P.A. C [3]: 0.1%
Related Substances (from process) P.A. E [3]: 0.15%
Decomposition on storage (in words) ([4]; stored at an appropriate temperature): did not show decomposition
Decomposition Products D.P. II ([4]; t = 0): 1.00
Decomposition Products D.P. I ([4]; t = 0): 0.44%
Related Substances (from process) P.A. B ([4]; t = 0): 0.1%
Related Substances (from process) P.A. C ([4]; t = 0): 0.09%
Related Substances (from process) P.A. D ([4]; t = 0): 0.9%
Related Substances (from process) P.A. E ([4]; t = 0): 0.1%
Decomposition Products D.P. II ([4]; t = 18 months (at 2-8° C.)): 1.06
Decomposition Products D.P. I ([4]; t = 18 months (at 2-8° C.)): 0.62%
Related Substances (from process) P.A. B ([4]; t = 18 months (at 2-8° C.)): 0.18%
Related Substances (from process) P.A. C ([4]; t = 18 months (at 2-8° C.)): 0.08%
Related Substances (from process) P.A. D ([4]; t = 18 months (at 2-8° C.)): 0.97%
Related Substances (from process) P.A. E ([4]; t = 18 months (at 2-8° C.)): 0.09%
SMILES: C/C(=C\C(=O)OCCCCCCCCC(=O)[O-])C[C@@H]1OC[C@H](C[C@@H]2O[C@H]2[C@@H](C)[C@H](C)O)[C@@H](O)[C@H]1O.C/C(=C\C(=O)OCCCCCCCCC(=O)[O-])C[C@@H]1OC[C@H](C[C@@H]2O[C@H]2[C@@H](C)[C@H](C)O)[C@@H](O)[C@H]1O.[Ca+2] [amorphous calcium pseudomonate, calcium pseudomonate]
Thermal stability (in words) [1]: thermally labile

Related Substances (from process) P.A. D [3]: 1.17
Decomposition Products D.P. I [3]: 0.58%
Decomposition Products D.P. II [3]: 0.81%
Related Substances (from process) P.A. B [3]: 0.57%
Related Substances (from process) P.A. C [3]: 0.16%
Related Substances (from process) P.A. E [3]: 0.21%
Decomposition during the preparation of the calcium salt (in words) ([3]; process of the present invention): no decomposition
SMILES: C/C(=C\C(=O)OCCCCCCCCC(=O)O)C[C@@H]1OC[C@H](C[C@@H]2O[C@H]2[C@@H](C)[C@H](C)O)[C@@H](O)[C@H]1O [pseudomonic acid, Pseudomonic acid A]
